From US20180221319A1, “METHODS OF TREATING SEIZURE DISORDERS AND PRADER-WILLI SYNDROME” (Ovid Therapeutics Inc., priority 2017, published 2018)

Tests used:
[1] = plasma pharmacokinetics (elimination half-life, Cmax, AUC versus dose); details: dose range of 5 mg-500 mg
From the text: (§1) “PK” refers to the pharmacokinetic profile. Cmax is defined as the highest plasma drug concentration estimated during an experiment (ng/ml). Tmax is defined as the time when Cmax is estimated (min). AUC0-∞ is the total area under the plasma drug concentration-time curve, from drug administration until the drug is eliminated (ng·hr/ml or g*hr/ml). The area under the curve is governed by clearance. Clearance is defined as the volume of blood or plasma that is totally cleared of its content of drug per unit time (ml/min).

in vivo = details: plasma
From the text: as §1

AUCs dose proportionality [1]: greater than proportional increase | Cmax dose proportionality [1]: increases in a dose proportional manner | half-life (in vivo): 4 to 6 h
SMILES: N[C@H]1C[C@@H](C(=O)O)CC1=C(F)F
